Assay [1] concerns GNS166 cells. The assay is described as follows: Immunofluorescence of pH3, Cleaved Caspase 3, Ki67, PARP1. Type of assay: cell-based, human. Particulars: for pH3-positive cells: control 3%. The procedure:
Immunofluorescence assays were performed following standard procedures. Cells were seeded at a density of 2 × 10^4 cells/well in 8-well immunofluorescence chambers (LabTek Thermo) and incubated overnight before treating with increasing concentrations of DDI199. After 48 h, cells were fixed with 4% PFA. Primary antibodies against phosphohistone H3 (pH3) (ab14955, abcam), Cleaved Caspase 3 (AF385, R&D Systems), Ki67 (ab15580, abcam) and PARP1 (ab32064, abcam) were used. Secondary antibodies were Alexa Fluor anti-mouse (A21422, Invitrogen) and Alexa Fluor anti-rabbit (A31572, Invitrogen), and chromatin was stained with DAPI (D9541, Sigma-Aldrich). Axio Observer 7 epifluorescence microscope was used to take pictures, which were later quantified in Qupath.

Assay [2] concerns GNS166 cells. The assay is described as follows: q-RTPCR of selected DEGs. It counts as cell-based, human. Particulars: GNS166 treated versus non-treated. The procedure:
Total RNA was extracted using Trizol (Life Thechnologies). Reverse transcription was then performed with the Maxima First Strand cDNA Synthesis Kit (ThermoFisher), following manufacturer’s guidelines. Quantitative real-time PCR was carried out in a CFX384 Thermal Cycler (BioRad) by Absolute SYBR Green mix (ThermoFisher). GAPDH was used as housekeeping gene for the correction of variations on initial cDNA levels, and relative gene expression was determined using the 2^-ΔΔCt formula.

Another assay deals with U87-MG tumor cells. Briefly: Oncosphere formation from disaggregated treated tumors. It counts as cell-based. As to the method:
For oncosphere formation assay, cells were cultured in non-treated 48-well plates in DMEM/F12 medium supplemented with EGF and FGF and fresh media was added every 2 days. After 7 days, oncosphere formation was documented and the number of spheres was quantified using Qupath.
For tumor growth experiments, 5 × 10^5 U87-MG cells were subcutaneously injected into two bottom flanks of athymic nude-Foxn1^nu mice, and once tumors reached a size of 25-50 mm^3, mice were sorted into groups taking into account gender and tumor size. Afterwards, mice were intratumorally treated with vehicle, SAHA 100 µM or DDI199 100 µM following a schedule of 5 days on and 2 days off. In combined treatment, mice were treated intraperitoneally with 0.5 mg/Kg of TMZ for 5 days and intratumorally following a schedule of 5 days on and 2 days off with vehicle, SAHA 100 µM or DDI199 100 µM. After 4 weeks of treatment, some mice were kept for washout experiment, while the rest were sacrificed and tumors were extracted for immunohistochemistry and to disaggregate for reinjection and oncosphere formation studies. For reinjection assays, 1.5 × 10^5 cells were subcutaneously injected and tumor size was periodically measured. Once tumors reached end-point criteria, they were extracted for immunohistochemical analysis. […]

The values below come from publication PMC11971462, “Generation and validation of a novel multitarget small molecule in glioblastoma” (Cell Death & Disease, 2025).

SMILES strings stand for the structures.

Take `C#CCN(Cc1cc2cc(OCCCN3CCCCC3)ccc2n1S(=O)(=O)c1ccccc1)C(=O)CCCCCCC(=O)NO` [DDI199]: the pH3-positive cells in the assay with GNS166 cells [1] (GNS166, 1 µM) came out at 2%. Also, in the assay with GNS166 cells [1] (GNS166, 5 µM), the Ki67 positive cells entry was “almost blocking completely” and the pH3-positive cells worked out at 0.6%. In the assay with GNS166 cells [1] (GNS166, 10 µM), the pH3-positive cells was determined as 0.1%. For the same compound, in the assay on GNS166 cells [1] (GNS166, 1, 5 and 10 µM), the “Cleaved Caspase-3-positive cells” value is on record as “increase” and the PARP-positive cells result is “dose-dependent induction of apoptosis”. Further, in the assay on GNS166 cells [2], the “Expression of genes associated to neurotransmission/synapsis (q-RTPCR)” value is listed as “significantly higher”; the “Expression of genes associated with cell cycle and DNA remodeling (q-RTPCR)” value is given as “significantly reduced”. The “Oncospheres formed by cells from treated tumors” value with U87-MG tumor cells (GSC medium, 7 days) is recorded as “fewer oncospheres”. For the same compound, the “Oncospheres from treated tumors, combined with TMZ” value with U87-MG tumor cells (TMZ plus DDI199 versus control and TMZ-treated cells) is reported as “significantly lower number of oncospheres”.
